{"source": "patent US20220047527A1", "about": "“FOOD-AND-DRINK COMPOSITION CONTAINING ASTAXANTHIN” (AstaReal Co., Ltd., priority 2016, published 2022)", "key": {"[1]": {"tested_on": "human having a sense of fatigue", "assay": "VAS (Visual Analog Scale) analysis before/after mental and physical loads", "type": "in vivo", "details": "for VAS, Clear-headedness (FIG. 5) / VAS, Concentration (FIG. 5) / VAS, Feeling of body heaviness (FIG. 5) / VAS, Frustration (FIG. 5) / VAS, Mood (FIG. 5) / VAS, Motivation (FIG. 5): vs control group", "description": "A placebo-controlled, randomized, double-blind, parallel-group study was employed for ingestion of the test food, and two groups, namely, the control group (placebo group) with ingestion of a capsule not containing astaxanthin and the astaxanthin group with ingestion of a capsule containing 6 mg of astaxanthin (120 mg of Haematococcus algae extract and 10 mg of tocotrienol mixture derived from palm oil) were compared through a double-blind method. For ingestion of the test food, the subjects were instructed to ingest one capsule twice daily (total 12 mg of astaxanthin (240 mg of Haematococcus algae extract and 20 mg of tocotrienol mixture derived from palm oil) in two capsules per day), one after breakfast (or after the first meal of the day if no breakfast was taken) and the other after dinner, with water or lukewarm water within 30 min of eating. The overall duration for ingestion was 8 weeks (12 weeks only for the OSA sleep analysis). The subjects were also instructed to record their test food ingestion, drinking, and exercise in a diary every day, from the first day to the last day of ingestion.\nThe assessment to the subjects consisted of seven questions: “Sense of Fatigue (“sense of fatigue caused by mental load” or “sense of fatigue caused by mental load and physical load”) (best sensation with no fatigue—worst sensation of being too tired to do anything)”, “Clear-headedness (very clear—very dull)”, “Concentration (able to concentrate very easily—unable to concentrate at all)”, “Motivation (highly motivated—totally unmotivated)”, “Mood (very happy—as depressed as I can be)”, “Frustration (not frustrated at all—very frustrated)”, and “Feeling of body heaviness (feeling my body is very light—feeling my body is very heavy)”. For each question, the subjects were instructed to draw a vertical line by intuition on a 100 mm horizontal line to indicate their condition at the time, with the far left end indicating the best condition and the far right end indicating the worst condition. A VAS score was derived by measuring with a ruler the distance from the far left end to the intersection with the vertical line. VAS analysis was performed five times in total in one day: in the morning of the day of assessment (before load application), after application of a physical load and a mental load, at the end of the assessment visit (after a rest period), after mental load application (calculation load; Uchida-Kraepelin test), and after a rest period after mental load application. To determine transient changes in fatigue, the load-induced change was calculated by subtracting the pre-load value from the values after mental load application, after a rest period after mental load application, after application of both loads, and after a rest period therefor. In addition, to determine the effect of test food ingestion alone, ingestion-induced change was calculated by subtracting the pre-load (pre-ingestion) value at week 0 from the pre-load value after 4-week ingestion and after 8-week ingestion."}, "salivary cortisol": {"tested_on": "salivary cortisol", "assay": "Measurement of salivary cortisol (CLIA)", "type": "in vivo, human", "details": "for salivary cortisol concentration: after 8-week ingestion", "description": "(§1) Salivary cortisol, which was examined as a biochemical index for a mental load, is used as a stress marker because of simplicity of measurement due to the high correlation with blood cortisol, and known to be increased by an acute mental stress, for example, caused at making a speech in front of others or doing mental calculation or by continuous, high-intensity exercise. Because the salivary cortisol concentration is known to show circadian variation, being high in the morning and then declining as the night approaches, mental load application (calculation load; Uchida-Kraepelin test) was performed in the morning in this study. Salivary secretory immunoglobulin A (sIgA) is an antibody produced by B cells that inhibits the proliferation of pathogens on the mucosa of the oral cavity, airway, intestines, and other organs. It is known that reduction of sIgA in saliva is associated with the development of upper respiratory tract infection and that salivary sIgA concentration decreases under chronic stress and increases in a relaxed state.\nPrior to saliva sampling, the subjects were instructed to brush their teeth and place a cotton swab (Salivette) in the mouth for 2 minutes without chewing to thoroughly soak the cotton swab with saliva. Saliva samples were collected twice, in the morning of the day of assessment (before load application) and after mental load application (calculation load; Uchida-Kraepelin test). Salivary cortisol concentration was measured with a competitive chemiluminescent immunoassay (CLIA) kit (Chemilumi ACS-E Cortisol II; Siemens Healthcare Diagnostics Inc.)."}, "[2]": {"tested_on": "salivary secretory immunoglobulin A (sIgA)", "assay": "Measurement of salivary secretory immunoglobulin A (EIA)", "type": "in vivo, human", "description": "as §1\nSaliva samples were collected from the subjects in the morning of the day of assessment (before load application) in the same manner as in (1) of [5-2]. The sIgA concentration in each saliva sample was measured with an enzyme immunoassay (EIA) kit (EIA s-IgA Test Kit, Medical & Biological Laboratories Co., Ltd.)."}, "[3]": {"tested_on": "human having a sense of fatigue", "assay": "Continuous calculation task (Uchida-Kraepelin test), task performance with a mental load", "type": "in vivo", "details": "after 8-week ingestion, vs control group (FIG. 18)", "description": "A mental load was applied to each subject by a continuous calculation task with the Uchida-Kraepelin test (Nisseiken Inc., Japan) consisting of two sessions of a 15-min serial addition task (total 30 min), with a 5-min rest period between the first and second sessions. Specifically, the subjects were instructed to sequentially add two adjoining single-digit numbers (combination of 3, 4, 5, 6, 7, 8, and 9), record only the last digit (one's place) of the sum, spend only 1 min on each line, and then quickly move on to the next line of numbers for calculation. This task was continued for 15 min in each session. After the completion of the task, the number of calculations and the number of wrong answers were counted to calculate the percentage of correct answers, and the results for the first session were subtracted from those for the second session to determine change in task performance in the second session, which was used as the task performance with a mental load."}, "[4]": {"assay": "Adverse events in Study 1", "type": "in vivo, human"}, "[5]": {"details": "previously: 12 mg/day of astaxanthin and 40 mg/day of tocotrienol for eight weeks; cited from earlier work"}, "[6]": {"details": "after application of both loads, after 4-week ingestion, vs control group (FIG. 4)"}, "[7]": {"details": "after application of both loads, after 8-week ingestion, vs control group (FIG. 4)"}, "[8]": {"details": "after application of both loads"}, "[9]": {"details": "after the rest period (after both loads), after 4-week ingestion, vs control group (FIG. 4)"}, "[10]": {"details": "after the rest period (after both loads), after 8-week ingestion, vs control group (FIG. 4)"}, "[11]": {"details": "after the rest period (after both loads)"}, "[12]": {"details": "throughout the study period, 12 mg/day"}}, "note": "Like-named read-outs stand apart in the source and are kept apart here.", "data": [{"smiles": "CC1=C(/C=C/C(C)=C/C=C/C(C)=C/C=C/C=C(C)/C=C/C=C(C)/C=C/C2=C(C)C(=O)C(O)CC2(C)C)C(C)(C)CC(O)C1=O", "note": "(stereo not drawn) [astaxanthin, 3,3′-dihydroxy-β,β-carotene-4,4′-dione]", "values": [{"measurement": "VAS load-induced change, Clear-headedness", "setting": "[1]; [6]", "value": "marginally significant improvement and enhancement"}, {"measurement": "VAS load-induced change, Mood", "setting": "[1]; [6]", "value": "significant improvement"}, {"measurement": "VAS load-induced change, Clear-headedness", "setting": "[1]; [7]", "value": "marginally significant improvement and enhancement"}, {"measurement": "VAS load-induced change, Concentration", "setting": "[1]; [7]", "value": "marginally significant improvement and enhancement"}, {"measurement": "VAS load-induced change, Feeling of body heaviness", "setting": "[1]; [7]", "value": "significant improvement"}, {"measurement": "VAS load-induced change, Mood", "setting": "[1]; [7]", "value": "marginally significant improvement"}, {"measurement": "VAS load-induced change, Motivation", "setting": "[1]; [7]", "value": "marginally significant enhancement"}, {"measurement": "VAS, Clear-headedness (FIG. 5)", "setting": "[1]; [8]", "value": "marginally significant improvement"}, {"measurement": "VAS, Concentration (FIG. 5)", "setting": "[1]; [8]", "value": "marginally significant improvement"}, {"measurement": "VAS, Feeling of body heaviness (FIG. 5)", "setting": "[1]; [8]", "value": "significant improvement"}, {"measurement": "VAS, Frustration (FIG. 5)", "setting": "[1]; [8]", "value": "resolution of frustration"}, {"measurement": "VAS, Mood (FIG. 5)", "setting": "[1]; [8]", "value": "marginally significant improvement"}, {"measurement": "VAS, Motivation (FIG. 5)", "setting": "[1]; [8]", "value": "marginally significant improvement"}, {"measurement": "VAS load-induced change, Frustration", "setting": "[1]; after mental load application, after 8-week ingestion, vs control group (FIG. 4)", "value": "significant improvement"}, {"measurement": "VAS, Clear-headedness (FIG. 5)", "setting": "[1]; after mental load application", "value": "improvement"}, {"measurement": "VAS, Concentration (FIG. 5)", "setting": "[1]; after mental load application", "value": "improvement"}, {"measurement": "VAS, Feeling of body heaviness (FIG. 5)", "setting": "[1]; after mental load application", "value": "reduction of feeling of body heaviness"}, {"measurement": "VAS, Frustration (FIG. 5)", "setting": "[1]; after mental load application", "value": "significant improvement"}, {"measurement": "VAS, Mood (FIG. 5)", "setting": "[1]; after mental load application", "value": "improvement"}, {"measurement": "VAS, Motivation (FIG. 5)", "setting": "[1]; after mental load application", "value": "improvement"}, {"measurement": "VAS load-induced change, Clear-headedness", "setting": "[1]; [9]", "value": "marginally significant improvement and enhancement"}, {"measurement": "VAS load-induced change, Mood", "setting": "[1]; [9]", "value": "marginally significant improvement"}, {"measurement": "VAS load-induced change, Clear-headedness", "setting": "[1]; [10]", "value": "marginally significant improvement and enhancement"}, {"measurement": "VAS load-induced change, Concentration", "setting": "[1]; [10]", "value": "marginally significant improvement and enhancement"}, {"measurement": "VAS load-induced change, Feeling of body heaviness", "setting": "[1]; [10]", "value": "marginally significant improvement"}, {"measurement": "VAS load-induced change, Frustration", "setting": "[1]; [10]", "value": "significant improvement"}, {"measurement": "VAS, Clear-headedness (FIG. 5)", "setting": "[1]; [11]", "value": "marginally significant improvement"}, {"measurement": "VAS, Concentration (FIG. 5)", "setting": "[1]; [11]", "value": "marginally significant improvement"}, {"measurement": "VAS, Feeling of body heaviness (FIG. 5)", "setting": "[1]; [11]", "value": "marginally significant improvement"}, {"measurement": "VAS, Frustration (FIG. 5)", "setting": "[1]; [11]", "value": "significant improvement"}, {"measurement": "VAS, Mood (FIG. 5)", "setting": "[1]; [11]", "value": "improvement"}, {"measurement": "VAS, Motivation (FIG. 5)", "setting": "[1]; [11]", "value": "improvement"}, {"measurement": "salivary cortisol concentration after vs before mental load application", "setting": "salivary cortisol; after 4-week ingestion (FIG. 7)", "value": "significantly lower"}, {"measurement": "salivary cortisol concentration", "setting": "salivary cortisol; after mental load application", "value": "0.38 ± 0.03", "unit": "µg/dL"}, {"measurement": "salivary cortisol concentration", "setting": "salivary cortisol; before mental load application", "value": "0.44 ± 0.03", "unit": "µg/dL"}, {"measurement": "salivary sIgA concentration", "setting": "[2]; after 8-week ingestion", "value": "41.9 ± 5.5", "unit": "µg/mL"}, {"measurement": "salivary sIgA concentration", "setting": "[2]; at pre-ingestion (before load application), astaxanthin group", "value": "46.5 ± 8.2", "unit": "µg/mL"}, {"measurement": "change in salivary sIgA concentration", "setting": "[2]; until week 8 of ingestion vs pre-ingestion (FIG. 8)", "value": "no significant change"}, {"measurement": "change in the number of wrong answers in the second session, continuous calculation task", "setting": "[3]", "value": "significant improvement"}, {"measurement": "percentage of correct answers in the second session, continuous calculation task", "setting": "[3]", "value": "significant improvement"}, {"measurement": "adverse event", "setting": "[4]; this study", "value": "no adverse event was found"}, {"measurement": "adverse subjective symptoms", "setting": "[4]; [12]", "value": "none of the subjects complained"}, {"measurement": "medical examination by a physician", "setting": "[4]; [12]", "value": "no remarkable abnormalities"}, {"measurement": "adverse event", "setting": "[5]", "value": "No adverse event"}]}]}
